Results from US7479497B2, “Use of quinoline derivatives with anti-integrase effect and applications thereof” (priority 2002, dated 2009).

Columns and labels:
viral DNA = assay: Quantification of total viral DNA synthesized and of DNA integrated into the host cell genome after infection (Butler et al.); format: cell-based; details: FIG. 1
Protocol: FIG. 1, the quantification of the total viral DNA synthesized 6 hours after infection and the quantity of viral DNA integrated into the genome 8 hours after infection, and
Study of the Quantification of the Total Viral DNA Synthesized and of the DNA Integrated into the Genome of a Host Cell after Infection
The operation described by Butler et al. in Nat. Med. 2001 May; 7 (5): 631-4 is carried out.

virus = details: integrase mutations at V165 and V249, and at C280 for a second virus
integrase of HIV-1 = target: T1, integrase of HIV-1 (Human immunodeficiency virus type 1 group M subtype B, UniProt P04585); assay: Nuclear import test on the integrase of HIV-1 in permeabilized HeLa cells; format: cell-based; details: 30 minutes at 30° C., FIGS. 5 and 6
T1 construct: incubated for 30 minutes at 30° C. with integrase coupled with Cyanine 3 fluorochrome
Protocol: FIGS. 5 and 6 show the quantification of the fluorescence intensity measured in a nuclear import test on the integrase of HIV-1 in permeabilized HeLa cells in the presence or absence of cytoplasmic extracts.
The import tests in FIG. 5 were carried out as described in Depienne et al. 2001. HeLa cells were permeabilized with Digitonin, then incubated for 30 minutes at 30° C. with integrase coupled with Cyanine 3 fluorochrome in the presence of energy, in the absence of cytosolic extracts and in the presence or absence of increasing concentrations of different molecules as indicated. The cells were then fixed, analyzed by epifluorescence microscopy and acquisitions were carried out with a CCD camera.
For each condition, the fluorescence intensity per surface unit was quantified in 150 to 300 nuclei originating from 3 independent experiments.
The data of FIGS. 6 and 7 were obtained as follows: HeLa cells were permeabilized with digitonin, then incubated for 30 minutes at 30° C. with integrase conjugated to Cyanine 3 fluorochrome and with bovine serum albumin (BSA) conjugated to the standard nuclear localization signal of the T antigen of the SV40 virus (NLS) and with fluorescein (BSA-NLS), in the presence of cytosolic extracts and energy and in the presence or in the absence of increasing concentrations of different molecules as indicated. […]

integrase = integrase (Human immunodeficiency virus type 1 group M subtype B, UniProt P04585); assay: Integrase inhibitor in vitro; format: biochemical

Q: What does the source list for COc1cc(/C=C/c2ccc3ccc(C(=O)[O-])c(O)c3n2)cc(O)c1O.[Na+] [FZ41, 8-hydroxy-2-[2-[(3,4-dihydroxy,5-methoxyphenyl)ethenyl]]7-quinoline carboxylic acid]?
A: total viral DNA synthesized (viral DNA; 6 hours after infection): strong reduction; viral DNA integrated into the genome (viral DNA; 8 hours after infection): strong reduction; emergence of resistant viruses (virus): emergence of viruses resistant to the drug; nuclear import of integrase (fluorescence in the nuclei of permeabilized cells) (integrase of HIV-1): considerably reduce; Integrase inhibitor in vitro (integrase): YES
